Experiment [1] has as its system Echo7. As to the kind of experiment: Post-treatment assay, antiviral spectrum. The experiment is classed as cell-based, Echovirus 7 strain Wallace. The method, then:
We were also interested in the antiviral potential of ZAF-47 against other Enteroviruses. As such, we performed post-treatment assay on RD cells infected with other Enteroviruses such as CV-A16, CV-A6, Echo7, CV-B5, CV-A24 and EV-D68.
To determine the inhibitory profiles of the hits, post treatment assay was performed. Seeded 24-well plates, with 1.5 × 10^5 RD cells per well, were incubated overnight at 37 °C with 5% CO2. The seeded cells were infected with EV-A71 (100 µL per well, MOI = 1) for 1 h at 37 °C with 5% CO2 and then rinsed with 1 mL of PBS twice. Different concentrations of the hits were used to treat the infected cells for 12 h at 37 °C with 5% CO2. At 12 hpi, the plates were frozen and thawed for 2 cycles (−80°C; 37 °C) before collection of supernatants to measure the viral titres via viral plaque assay.
Measurement of the viral titres from collected supernatants was derived from viral plaque assays. To do this, 24-well plates, seeded with 2.4 × 10^5 RD cells per well, were used in plaque assays for EV-A71, EV-D68, Echo7, CV-A6, CV-A16 and CV-A24 while 24-well plates, seeded with 1.2 × 10^5 Vero cells per well, were used in plaque assays for CV-B5. Seeded cells were incubated overnight at 37 °C with 5% CO2. […] Subsequent formation of viral plaques was counted manually to quantify the viral titre in PFU/mL […]

In experiment [2] the test system is EV-A71 RNA. Kind of experiment: Entry bypass assay (EV-A71 RNA transfection). The following applies: 12 hpi. Type of experiment: cell-based, human enterovirus A71 (EV-A71) strain 41. The procedure:
To confirm this finding, assays to investigate the effect of ZAF-47 on EV-A71 entry into cells were performed. With pre-treatment assay, we first treated the cells with different concentrations of ZAF-47 before subjecting them to EV-A71 infection. The aim was to investigate if ZAF-47 was able to bind to host surface receptors which would prevent the virions from binding and thus blocking viral entry. […] Even at the highest concentration, the reduction in viral titre (0.8 log10 PFU/mL decrease) was not as pronounced as post-treatment and could likely be due to drug toxicity. Thus, it is unlikely that ZAF-47 inhibits EV-A71 infection by binding with host receptors to block viral entry. With co-treatment assay, we first treated EV-A71 virions with ZAF-47 for 30 min before infecting the cells. The aim was to investigate if ZAF-47 was able to bind to viral surface proteins which would prevent the virions from binding to the host receptors and thus blocking viral entry. […] Thus, it is unlikely that ZAF-47 blocks EV-A71 entry into host cells by binding to viral surface proteins. Instead, using entry bypass assay, we were able to deduce that ZAF-47 most likely targets EV-A71 post-entry stages. […]
Seeded 24-well plates, with 1.5 × 10^5 RD cells per well, were incubated overnight at 37 °C with 5% CO2. […] The plates were frozen down at 12 hpi for viral titre quantification using viral plaque assay.

Experiment [3] concerns EV-A71 Passage 21. As to the kind of experiment: Post-treatment assay on EV-A71 passaged 21 times with ZAF-47 (resistant mutant generation). The experiment is classed as cell-based, human enterovirus A71 (EV-A71). The following applies: supernatant from Passage 21, MOI = 1, RD cells. The procedure:
Unfortunately, we were unable to obtain any resistant mutants as the viral titre for ZAF-47-treated remained lower than that of the controls at Passage 21. […] As a result, we hypothesize that ZAF-47 possibly targets host factor/s associated with EV-A71 RNA replication which makes it harder to generate resistant mutants.
Seeded 24-well plates, with 1.5 × 10^5 RD cells per well, were incubated overnight at 37 °C with 5% CO2. After which, the cells were subjected to EV-A71 infection (200 µL per well, MOI = 1) for 1 h before treatment with 800 µL of ZAF-47 at final concentration of 10 µM for 12 h at 37 °C with 5% CO2. Treatment with reduced serum DMEM and 0.1% DMSO functioned as negative and vehicle controls respectively. Upon 12 hpi, the supernatant was collected for viral plaque assay as well as to infect (200 µL) another seeded plate.

Molecules are shown by their SMILES.

On to `CC(=O)OC[C@]1(C)C(=O)CC[C@@]2(C)C(C/C=C3/C(=O)OC[C@@H]3Oc3cccc4cccnc34)=C(C)CC[C@@H]21` [ZAF-47, (14β)-(8′-Quinolinoxy)-3-ketone-9-dehydro-17-hydro-19-acetoxy–andrographolide], for which the viral titre entry in experiment [1] (10 µM, Echo7-infected RD cells) is recorded as “reducing the viral titres of the above-listed enteroviruses significantly”. The molecule further displayed an IC50 in experiment [1] (Echo7, Enterovirus B, drug treatment duration 12 h, RD cells) of 6.7 µM. For the same molecule, the viral reduction in experiment [2] (10 µM) turned out to be 0.9 log; in experiment [2] (20 µM), 2.6 log. For the same molecule, the “inhibition of passaged virus” value in experiment [3] is “still capable of inhibiting the passaged virus dose-dependently”.

The values are drawn from PMC8880313, “Discovery of Novel Andrographolide Derivatives as Antiviral Inhibitors against Human Enterovirus A71” (Pharmaceuticals, 2022).
